Test results from US5242938A, “Derivatives of virginiamycin M1” (Merck & Co., Inc., priority 1992, dated 1993).
pIC50: −log10 of the molar value. Values after ≈ are worked out from the molar mass of the structure shown. Read-outs that look alike come from different tables or passages of the source.

How the values were obtained:
[1] = molecular target: T1, CCK-B (guinea pig cortex) (Cavia porcellus, UniProt H0VZC5); assay: [3H]L-365,260 CCK-B selective antagonist ligand binding, brain membranes
T1 construct: guinea pig cortical preparations; from tissue; host or cells: guinea pig brain cortex membranes
T1 sequence (H0VZC5 1-426): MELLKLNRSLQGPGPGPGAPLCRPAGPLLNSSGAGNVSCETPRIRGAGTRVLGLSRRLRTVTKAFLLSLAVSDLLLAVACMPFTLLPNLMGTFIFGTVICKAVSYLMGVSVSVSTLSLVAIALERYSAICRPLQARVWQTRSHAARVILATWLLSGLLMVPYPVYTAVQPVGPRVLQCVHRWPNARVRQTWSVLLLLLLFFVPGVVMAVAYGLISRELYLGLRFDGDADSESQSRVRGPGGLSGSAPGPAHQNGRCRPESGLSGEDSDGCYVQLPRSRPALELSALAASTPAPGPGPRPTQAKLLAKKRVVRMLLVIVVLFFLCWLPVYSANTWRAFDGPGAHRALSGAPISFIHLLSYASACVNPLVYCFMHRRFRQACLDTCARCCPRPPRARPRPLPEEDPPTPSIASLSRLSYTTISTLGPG
Procedure: (§1) The resulting supernatant was re-spun at 20,000×g for 20 minutes. […] Incubations were for 40 minutes at 4° C. and were terminated by filtration and washing with ice cold 100 mM saline. […] Incubations were for 30 minutes at room temperature and were terminated by filtration over GF/C filters and washing with 100 mM NaCl.

[2] = system: Corynebacterium pseudodiphtheriticum (Mb 261, ATCC 9742); assay: Agar diffusion disc assay, Cory 261; type: cell-based; conditions: Corynebacterium pseudodiphtheriticum, ATCC9742, 18 h, read-out: Inhibition zone diameter, Cory 261, @ 20 g/disc
Procedure: (§2) Cultures employed in evaluating antimicrobial activity included plant pathogens, human and animal opportunistic pathogens and selected laboratory strains having specific-antibiotic sensitivities or chromosomal or R-plasmid-mediated resistances. […] The agar diffusion MIC's were determined using the method described by Barry in Anitbiotics in Laboratory Medicine, 2nd Ed., Ed. V. Lorian, pp. 1-63, William & Wilkins, Baltimore, 1986. Each test compound was dissolved in methanol to a concentration of 1 mg/ml. Serial dilutions of these compounds were also made to determine an agar diffusion MIC. 20 μl of each dilution was pipetted on to 6 mm paper discs, air dried and placed onto the surface of an agar plate seeded with the appropriate bacteria (~10^6 cfu). Seeded agar plates were incubated overnight (~18 hours) at 25° C. Zone sizes were measured to the nearest mm. Each compound was tested in triplicate and the results shown represent the mean.

[3] = system: Escherichia coli (Mb 1418); assay: Agar diffusion disc assay, Coli 1418; type: cell-based; conditions: @ 20 g/disc
Procedure: as §2

[4] = system: Streptococcus faecium (Mb 2820); assay: Agar diffusion disc assay, Str 2820; type: cell-based; conditions: Enterococcus faecium, 18 h, read-out: Inhibition zone diameter, Str 2820, @ 20 g/disc
Procedure: as §2

[5] = system: Bacillus subtilis (Mb 964, ATCC 6633); assay: Agar diffusion disc assay, Subt 964; type: cell-based; conditions: Bacillus subtilis, ATCC6633, 18 h, read-out: Inhibition zone diameter, Subt 964
Procedure: as §2

CCK-A (rat pancreas) [6] = molecular target: T2, CCK-A (rat pancreas) (Rattus norvegicus, UniProt P30551); assay: [125I]BHCCK-8 radioligand binding, rat pancreatic preparation; conditions: read-out: CCK binding inhibition - IC50, [125I]BHCCK
T2 construct: from tissue; host or cells: rat pancreas
T2 sequence (P30551 1-444): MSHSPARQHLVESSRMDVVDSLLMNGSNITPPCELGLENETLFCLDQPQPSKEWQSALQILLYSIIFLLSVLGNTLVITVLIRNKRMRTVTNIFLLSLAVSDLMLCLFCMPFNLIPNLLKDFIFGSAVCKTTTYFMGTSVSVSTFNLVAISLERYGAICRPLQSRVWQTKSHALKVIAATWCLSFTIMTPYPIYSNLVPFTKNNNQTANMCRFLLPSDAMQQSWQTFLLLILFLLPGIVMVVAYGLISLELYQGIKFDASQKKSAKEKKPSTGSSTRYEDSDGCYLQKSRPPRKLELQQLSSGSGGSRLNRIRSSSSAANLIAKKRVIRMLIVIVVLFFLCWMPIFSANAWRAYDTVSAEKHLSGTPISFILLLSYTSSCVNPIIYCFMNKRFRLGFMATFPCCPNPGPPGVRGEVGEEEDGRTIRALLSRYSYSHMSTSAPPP
Procedure: as §1

[7] = system: En terobacter aergenes (Mb 835); assay: Agar diffusion disc assay, Ent 835; type: cell-based; conditions: 18 h, read-out: Inhibition zone diameter, Ent 835
Procedure: as §2

[8] = molecular target: T1, CCK-B (guinea pig cortex); assay: [125I]BHCCK-8 radioligand binding, guinea pig cortical preparation; conditions: read-out: CCK binding inhibition - IC50, [125I]BHCCK
Procedure: as §1

[9] = system: Pseudomonas stutzeri (Mb 1231, ATCC 11607); assay: Agar diffusion disc assay, Pseu 1231; type: cell-based; conditions: @ 20 g/disc
Procedure: as §2

[10] = system: Salmonella gallinarum (Mb 1287); assay: Agar diffusion disc assay, Salm 1287; type: cell-based; conditions: Salmonella enterica, GALLINARUM, 18 h, read-out: Inhibition zone diameter, Salm 1287
Procedure: as §2

[11] = system: Staphylococcus aureus (Mb 108, ATCC 6538P); assay: Agar diffusion disc assay, Sta 108; type: cell-based; conditions: Staphylococcus aureus, ATCC6538P, 18 h, read-out: Inhibition zone diameter, Sta 108, @ 20 g/disc
Procedure: as §2

CCK-A (rat pancreas) [12] = molecular target: T2, CCK-A (rat pancreas); assay: [3H]L-364,718 CCK-A selective antagonist ligand binding, pancreas; conditions: read-out: CCK binding inhibition - IC50, [3H]L-364,718
Procedure: as §1

[13] = system: Micrococcus luteus (Mb 1101, ATCC 9341); assay: Agar diffusion disc assay, Micr 1101; type: cell-based
Procedure: as §2

Bacillus sp. (Mb 633) = assay: Agar diffusion disc assay, Baci 633; type: cell-based; conditions: @ 20 g/disc
Procedure: as §2

[14] = system: Streptococcus agalactiae (Mb 2875); assay: Agar diffusion disc assay, Str 2875; type: cell-based; conditions: Streptococcus agalactiae, 18 h, read-out: Inhibition zone diameter, Str 2875, @ 20 g/disc
Procedure: as §2

[15] = system: Staphylococcus aureus (Mb 2983); assay: Agar diffusion disc assay, Sta 2983; type: cell-based; conditions: Staphylococcus aureus, 18 h, read-out: Inhibition zone diameter, Sta 2983, @ 20 g/disc
Procedure: as §2

For CC1=C\[C@@H](O)CC(O)Cc2nc(co2)C(=O)N2CCC=C2C(=O)O[C@H](C(C)C)[C@H](C)/C=C/C(=O)NC\C=C\1 (single isomer, unassigned) [Example 14A], the “A.R. = agonist ratio = IC50([3H]L365,260)/IC50([125I]CCK)” value [1] was 0.1, the pIC50 ([1]; read-out: CCK binding inhibition - IC50, [3H]L-365,260) was 6.85 and the zone of inhibition at 20 µg/disc [2] was 30 mm. For the same molecule, the “Inhibition zone diameter, Coli 1418” value [3] was 8 mm, the zone of inhibition at 20 µg/disc [4] was 16 mm and the zone of inhibition at 20 µg/disc [5] was 0 mm. The pIC50 (CCK-A (rat pancreas) [6]) was less than 5.52, the zone of inhibition at 20 µg/disc [7] was 0 mm and the pIC50 [8] was 5.68. The “Inhibition zone diameter, Pseu 1231” value [9] was 15 mm, the zone of inhibition at 20 µg/disc [10] was 0 mm and the zone of inhibition at 20 µg/disc [11] was 27 mm. It also gave a pIC50 (CCK-A (rat pancreas) [12]) of less than 5.52, a zone of inhibition at 20 µg/disc ([13]; Micrococcus luteus, ATCC9341, 18 h, read-out: Inhibition zone diameter, Micr 1101, @ 20 g/disc) of 35 mm and a zone of inhibition at 1.25 µg/disc ([13]; Micrococcus luteus, ATCC9341, 18 h, read-out: Mean of triplicate zone size versus Micrococcus luteus, 1.25 μg/disc, 25° C., ~18 hours) of 25 mm. The zone of inhibition at 2.5 µg/disc ([13]; Micrococcus luteus, ATCC9341, 18 h, read-out: Mean of triplicate zone size versus Micrococcus luteus, 2.50 μg/disc, 25° C., ~18 hours) was 27 mm, the zone of inhibition at 5 µg/disc ([13]; Micrococcus luteus, ATCC9341, 18 h, read-out: Mean of triplicate zone size versus Micrococcus luteus, 5.00 μg/disc, 25° C., ~18 hours) was 29 mm and the zone of inhibition at 20 µg/disc ([13]; Micrococcus luteus, ATCC9341, 18 h, read-out: Mean of triplicate zone size versus Micrococcus luteus, 20.0 μg/disc, 25° C., ~18 hours) was 33 mm. For the same molecule, the MIC ([13]; read-out: Agar Diffusion MIC versus Micrococcus luteus) was 0.08 µM (≈ 0.0422 µg/mL), the “Inhibition zone diameter, Baci 633” value (Bacillus sp. (Mb 633)) was 9 mm and the zone of inhibition at 20 µg/disc [14] was 30 mm. For the same molecule, the zone of inhibition at 20 µg/disc [15] was 22 mm.
